From US9388313B2, “Water-insoluble coloring compound, ink, thermal transfer recording sheet, and color filter resist composition” (CANON KABUSHIKI KAISHA, priority 2012, dated 2016)
Read-outs that look alike come from different tables or passages of the source.

Key:
[1] = Evaluation of solvent solubility of water-insoluble coloring compound (visual); assay type: physicochemical; settings: organic solvent or mixture, thermodynamic from solid, room temperature
Experimental: The solvent solubilities of Compounds (1), (4), (11), (18), (23), (26), and (28) as the water-insoluble coloring compounds and Comparative Compounds (1) and (2) were evaluated by dissolving 30 mg of each compound in 0.7 mL of each solvent, toluene, methanol, ethyl acetate, or chloroform, at room temperature, and visually observing each solution according to the following evaluation criteria:
B: suspended material slightly remained, and […]

[2] = Visual investigation of color filters; settings: cyclohexanone-based resist composition
Experimental: Color filter resist composition (1) of the present invention was prepared by slowly adding 22 parts of Ink (A) to a solution of 6.7 parts of an acrylic copolymer composition (weight average molecular weight Mw: 10000) composed of 40% by mass of n-butyl methacrylate, 30% by mass of acrylic acid, and 30% by mass of hydroxyethyl methacrylate in monomer ratios, 1.3 parts of dipentaerythritol pentaacrylate, and 0.4 parts of 2-benzyl-2-dimethylamino-1-(4-morpholinophenyl)-butanone (photopolymerization initiator) in 96 parts of cyclohexanone, stirring the mixture at room temperature for 3 hours, and filtering the reaction solution through a filter of 1.5 μm pore size.
Color filter (1) was produced by spin-coating color filter resist composition (1) on a glass substrate and then drying at 90° C. for 3 min, exposure of the entire surface to light, and post-curing at 180° C.

[3] = 30 mg in 0.7 mL chloroform, read-out: Solubility Chloroform
[4] = 30 mg in 0.7 mL ethyl acetate, read-out: Solubility Ethyl acetate
[5] = 30 mg in 0.7 mL methanol, read-out: Solubility Methanol
[6] = 30 mg in 0.7 mL toluene, read-out: Solubility Toluene

## CCOC(=O)c1c(C)c(/N=N/c2ccccc2C(=O)N(C2CCCCC2)C2CCCCC2)c(O)[nH]c1=O [Compound 28]
[1]; [3]
  solubility: > 42.9 mg/mL
[1]; [4]
  solubility: > 42.9 mg/mL
[1]; [5]
  solubility: > 42.9 mg/mL
[1]; [6]
  solubility: > 42.9 mg/mL

## CCCCC(CC)CN(CC(CC)CCCC)C(=O)c1ccc(/N=N/c2c(O)[nH]c(=O)c(C(=O)OCC)c2C)cc1 (centres unmarked) [Compound 18]
[2]
  solvent solubility (demonstrated by spin-coating uniformity): high solvent solubilities
[1]; [3]
  solubility: > 42.9 mg/mL
[1]; [4]
  solubility: > 42.9 mg/mL
[1]; [5]
  solubility: > 42.9 mg/mL
[1]; [6]
  solubility: > 42.9 mg/mL

## CCCCC(CC)CN(CC(CC)CCCC)C(=O)c1ccccc1/N=N/c1c(O)[nH]c(=O)c(C(=O)NC(C)(C)C)c1C (centres unmarked) [Compound 23]
[1]; [3]
  solubility: > 42.9 mg/mL
[1]; [4]
  solubility: > 42.9 mg/mL
[1]; [5]
  solubility: > 42.9 mg/mL
[1]; [6]
  solubility: > 42.9 mg/mL

## CCCCC(CC)CN(CC(CC)CCCC)C(=O)c1ccccc1/N=N/c1c(O)[nH]c(=O)c(C(=O)OCC)c1C (centres unmarked) [Compound 1]
[2]
  solvent solubility (demonstrated by spin-coating uniformity): high solvent solubilities
[1]; [3]
  solubility: > 42.9 mg/mL
[1]; [4]
  solubility: > 42.9 mg/mL
[1]; [5]
  solubility: > 42.9 mg/mL
[1]; [6]
  solubility: > 42.9 mg/mL

## CCCCCc1c(/N=N/c2ccccc2C(=O)N(CC(CC)CCCC)CC(CC)CCCC)c(O)[nH]c(=O)c1C(=O)N1CCCCC1 (centres unmarked) [Compound 26]
[1]; [3]
  solubility: > 42.9 mg/mL
[1]; [4]
  solubility: > 42.9 mg/mL
[1]; [5]
  solubility: > 42.9 mg/mL
[1]; [6]
  solubility: > 42.9 mg/mL

## CCCCC(CC)CN(CC(CC)CCCC)C(=O)c1ccc(/N=N/c2c(O)[nH]c(=O)c(C#N)c2C)cc1 (centres unmarked) [compound 2, reference compound]
[2]
  solvent solubility (demonstrated by spin-coating uniformity): poor solvent solubilities
[1]; [3]
  solubility: < 42.9 mg/mL
[1]; [4]
  solubility: < 42.9 mg/mL
[1]; [5]
  solubility: < 42.9 mg/mL
[1]; [6]
  solubility: < 42.9 mg/mL

## CCCCC(CC)CN(CC(CC)CCCC)C(=O)c1cccc(/N=N/c2c(O)[nH]c(=O)c(C(=O)OCC)c2C)c1 (centres unmarked) [Compound 11]
[2]
  solvent solubility (demonstrated by spin-coating uniformity): high solvent solubilities
[1]; [3]
  solubility: > 42.9 mg/mL
[1]; [4]
  solubility: > 42.9 mg/mL
[1]; [5]
  solubility: > 42.9 mg/mL
[1]; [6]
  solubility: > 42.9 mg/mL

## CCCCC(CC)CN(CC(CC)CCCC)S(=O)(=O)c1ccc(/N=N/c2c(O)[nH]c(=O)c(C#N)c2C)cc1 (centres unmarked) [compound 1, reference compound]
[2]
  solvent solubility (demonstrated by spin-coating uniformity): poor solvent solubilities
[1]; [3]
  solubility: < 42.9 mg/mL
[1]; [4]
  solubility: < 42.9 mg/mL
[1]; [5]
  solubility: < 42.9 mg/mL
[1]; [6]
  solubility: < 42.9 mg/mL

## CCCCC(CC)CN(CC(CC)CCCC)S(=O)(=O)c1ccccc1/N=N/c1c(O)[nH]c(=O)c(C(=O)OCC)c1C (centres unmarked) [Compound 4]
[1]; [3]
  solubility: > 42.9 mg/mL
[1]; [4]
  solubility: > 42.9 mg/mL
[1]; [5]
  solubility: > 42.9 mg/mL
[1]; [6]
  solubility: > 42.9 mg/mL
